Test results published in patent publication US20110207751A1, “HETEROCYCLIC COMPOUNDS AND USES AS ANTICANCER AGENTS” (priority 2010, published 2011).
Where a name gives a salt, the structure may show the parent alone. Read-outs that look alike come from different tables or passages of the source.

Columns and labels:
[1] = system: HepG2 cells (human liver cancer cell line); assay: Inhibition of cell proliferation, xCelligence cell index; assay type: cell-based; settings: 72 hr post compound treatment, read-out: calculated IC50
Source text: (§1) The biological activity of compounds disclosed herein was monitored and profiled using the Real-Time Cell Electronic Sensing (RT-CES®) system from ACEA Biosciences, Inc. The RT-CES system utilizes cell-substrate impedance technology to monitor cellular behavior inside tissue culture wells in a microtiter plate format. The technology features in the integration of molecular and cell biology with microelectronics and is based on the electronic detection of biological assay process. […]
(§2) For measurement of cell-substrate or cell-electrode impedance using RT-CES technology, microelectrodes having appropriate geometries are fabricated onto the bottom surfaces of microtiter plate or similar device, facing into the wells. […] When there are changes to the biological status of the cells analogue electronic readout signals are measured automatically and in real time, and are converted to digital signals for processing and for analysis. In a RT-CES system, a cell index (arbitrary representation of change in impedance) is automatically derived and provided based on measured electrode impedance values. […]
(§3) To quantify cell status based on the measured cell-electrode impedance, a parameter termed Cell Index is derived. Cell Index is a quantitative measure of the status of the cells in an electrode-containing well. […]

[2] = system: MCF7 cells (human breast cancer cell line); assay: as above; assay type: cell-based; settings: 72 hr post compound treatment, read-out: calculated IC50
Source text: as §1, §2, §3

[3] = system: MDA-MB-231 cells (human breast cancer cell line); assay: as above; assay type: cell-based; settings: 72 hr post compound treatment, read-out: calculated IC50
Source text: as §1, §2, §3

[4] = system: NIH 3T3 cells (the normal tissue cell line); assay: as above; assay type: cell-based; settings: Mus musculus, NIH3T3
Source text: as §1, §2, §3

[5] = system: tubulin (colchicine-binding site); assay: Spin column assay with [^3H]colchicine; settings: tubulin with [^3H]colchicine and unlabeled competitor, 37° C. 1 h
Method: (§4) Spin column assay. […] The reaction mixtures were incubated at 37° C. for 1 h. The samples were loaded onto Illustra™ MicroSpin™ G-50 columns (GE Healthcare) previously equilibrated with the buffer solution. The columns were placed into 1.5-ml tubes and spun at 750 g for 2 min at room temperature, and radioactivity in the flow-through was analyzed by a scintillation counter.

[6] = system: tubulin (vinblastine-binding site); assay: Spin column assay with [^3H]vinblastine; settings: tubulin with [^3H]vinblastine and unlabeled competitor, 37° C. 1 h
Method: as §4

human cancer cell lines = assay: RT-CES / xCelligence profiling over the panel of cell lines; assay type: cell-based
Source text: as §1, §2, §3

CCc1ccc(Nc2nc(-c3c(C)nc4sccn34)cs2)cc1 [COMPOUND O, 2-(4-ethylphenyl)amino-4-(6-methylimidazo[2,1-b]thiazol-5-yl)-thiazole monohydrobromide]
IC50 [1]: 0.0259 µM
IC50 [2]: 0.0744 µM
IC50 [3]: 0.0324 µM
IC50 ([4]; NIH 3T3, 72 hr post compound treatment, read-out: calculated IC50): 6 µM
IC50 ([4]; NIH-3T3, read-out: IC50): 6 µM
amount of [^3H]colchicine in the flow-through [5]: reduced the amount of [^3H]colchicine in the flow-through in a concentration-dependent manner
amount of [^3H]vinblastine in the flow-through [6]: neither colchicine nor COMPOUND O affected the amount of [^3H]vinblastine in the flow-through
IC50 towards all tested cancer cell lines (human cancer cell lines; all tested cancer cell lines): low nM range
effect on the proliferation of the cancer cell lines (human cancer cell lines; cell lines listed in b189 (FIGS. 4-24)): exhibited inhibitory effect
